This note sets out measurements from ChEMBL document CHEMBL5465560, “Selectivity Literature for EUbOPEN Chemogenomic Library” (2024).

Assay [1] concerns the target Non-receptor tyrosine-protein kinase TYK2 (Homo sapiens, UniProt P29597). Put plainly: Selectivity interaction (Ambit KINOMEscan and KiNATiv profiling in Jurkat cells) EUB0000090b TYK2. The class given is cell-based. Conditions: at 1 µM.
Assay [2] has as its target Tyrosine-protein kinase receptor UFO (Homo sapiens) (UniProt P30530). Conditions: at 10 µM.
Assay [3] deals with Calcium/calmodulin-dependent protein kinase type II subunit beta (Homo sapiens) (UniProt Q13554). Put plainly: Selectivity interaction (KinomeScan (DiscoverX)) EUB0000092b CAMK2B. The following applies: at 10 µM.
Assay [4] has as its target Tyrosine-protein kinase CSK (Homo sapiens) (UniProt P41240). Put plainly: Selectivity interaction (KinomeScan (DiscoverX)) EUB0000655a CSK. The following applies: at 10 µM.
Assay [5] has as its target Calcium/calmodulin-dependent protein kinase kinase 2 (Homo sapiens) (UniProt Q96RR4). Put plainly: Selectivity interaction (KinomeScan (DiscoverX)) EUB0000655a CAMKK2. Conditions: at 10 µM.
Assay [6] has as its target Dual specificity mitogen-activated protein kinase kinase 2 (Homo sapiens) (UniProt P36507). Description: Selectivity interaction (KinomeScan (DiscoverX)) EUB0000695a MAP2K2. The following applies: at 100 nM.
Assay [7] has as its target Glycogen synthase kinase-3 alpha (Homo sapiens, UniProt P49840). Put plainly: Selectivity interaction (SelectScreen profiling (Invitrogen)) EUB0000607a GSK3A. The following applies: at 2 µM.
The target of assay [8] is Serine/threonine-protein kinase WNK2 (Homo sapiens) (UniProt Q9Y3S1). Description: Selectivity interaction (ActivX KiNativ screen (kinase selectivity in THP-1 cell lysates)) EUB0000639a WNK2. The class given is subcellular. The following applies: lysate, at 0.04 µM.
Assay [9] has as its target Dual specificity protein kinase CLK3 (Homo sapiens, UniProt P49761). Description: Selectivity interaction (ActivX KiNativ screen (kinase selectivity in THP-1 cell lysates)) EUB0000639a CLK3. It is filed as subcellular. Conditions: lysate.
For assay [10], the target named is Serine/threonine-protein kinase Nek7 (Homo sapiens) (UniProt Q8TDX7). Put plainly: Selectivity interaction (KinomeScan (DiscoverX)) EUB0000229b NEK7. Conditions: at 10 µM.
The target in assay [11] is Dual specificity tyrosine-phosphorylation-regulated kinase 1A (Homo sapiens, UniProt Q13627). Description: Selectivity interaction (Kinase panel (literature)) EUB0001199aCl DYRK1A. Conditions: at 1 µM.
Assay [12] deals with T1, Mitogen-activated protein kinase kinase kinase 15 (Homo sapiens) (UniProt Q6ZN16).
T1 sequence (whole entry): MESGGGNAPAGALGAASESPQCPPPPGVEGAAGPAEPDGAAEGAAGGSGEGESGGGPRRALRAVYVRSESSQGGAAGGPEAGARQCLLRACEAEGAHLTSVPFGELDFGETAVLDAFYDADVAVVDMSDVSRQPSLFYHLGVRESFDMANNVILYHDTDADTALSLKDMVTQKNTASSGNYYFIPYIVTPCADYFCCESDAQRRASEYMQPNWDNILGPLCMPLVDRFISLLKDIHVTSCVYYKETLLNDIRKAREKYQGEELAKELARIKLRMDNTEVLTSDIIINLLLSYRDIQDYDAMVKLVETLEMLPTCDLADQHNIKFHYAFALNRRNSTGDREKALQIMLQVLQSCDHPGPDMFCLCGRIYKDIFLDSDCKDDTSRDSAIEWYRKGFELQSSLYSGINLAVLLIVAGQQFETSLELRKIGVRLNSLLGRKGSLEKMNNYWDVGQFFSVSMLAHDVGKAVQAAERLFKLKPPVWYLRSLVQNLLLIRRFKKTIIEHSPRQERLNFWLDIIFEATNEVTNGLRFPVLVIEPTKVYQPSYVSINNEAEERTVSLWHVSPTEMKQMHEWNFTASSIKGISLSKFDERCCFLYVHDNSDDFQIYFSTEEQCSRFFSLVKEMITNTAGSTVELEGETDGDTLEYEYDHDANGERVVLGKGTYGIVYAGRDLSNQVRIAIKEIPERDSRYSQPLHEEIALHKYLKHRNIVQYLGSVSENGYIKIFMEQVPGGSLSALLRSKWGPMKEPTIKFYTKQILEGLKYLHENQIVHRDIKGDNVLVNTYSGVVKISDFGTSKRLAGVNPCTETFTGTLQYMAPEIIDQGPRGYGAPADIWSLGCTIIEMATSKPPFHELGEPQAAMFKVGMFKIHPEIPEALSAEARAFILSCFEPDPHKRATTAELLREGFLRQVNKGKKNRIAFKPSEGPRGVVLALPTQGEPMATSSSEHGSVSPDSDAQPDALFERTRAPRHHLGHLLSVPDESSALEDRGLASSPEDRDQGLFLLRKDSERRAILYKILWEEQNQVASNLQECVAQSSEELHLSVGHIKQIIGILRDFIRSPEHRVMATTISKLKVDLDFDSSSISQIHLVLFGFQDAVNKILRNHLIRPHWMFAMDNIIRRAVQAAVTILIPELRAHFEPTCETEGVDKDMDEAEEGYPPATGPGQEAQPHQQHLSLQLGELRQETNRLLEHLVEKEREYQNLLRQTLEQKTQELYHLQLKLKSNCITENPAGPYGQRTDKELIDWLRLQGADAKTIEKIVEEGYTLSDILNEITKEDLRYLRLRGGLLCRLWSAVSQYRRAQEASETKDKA
Put plainly: Selectivity interaction (Kinase panel (KiNativ target engagement assay in Jurkat cells)) EUB0001635a MAP3K15. It is filed as cell-based. Conditions: at 1 µM.

Assay [13] has as its target Dual specificity mitogen-activated protein kinase kinase 1 (Homo sapiens, UniProt Q02750). Description: Selectivity interaction (Kinase panel (KiNativ target engagement assay in Jurkat cells)) EUB0001635a MAP2K1. It is filed as cell-based. The following applies: Selectivity number of off-targets 0.0, Selectivity number of targets 233.0, Source Knowledge https://www.sciencedirect.com/science/article/pii/S2451945619300674?via%3Dihub, at 1 µM.

Chain of Dual specificity protein kinase CLK3 (P49761 whole entry, looked up): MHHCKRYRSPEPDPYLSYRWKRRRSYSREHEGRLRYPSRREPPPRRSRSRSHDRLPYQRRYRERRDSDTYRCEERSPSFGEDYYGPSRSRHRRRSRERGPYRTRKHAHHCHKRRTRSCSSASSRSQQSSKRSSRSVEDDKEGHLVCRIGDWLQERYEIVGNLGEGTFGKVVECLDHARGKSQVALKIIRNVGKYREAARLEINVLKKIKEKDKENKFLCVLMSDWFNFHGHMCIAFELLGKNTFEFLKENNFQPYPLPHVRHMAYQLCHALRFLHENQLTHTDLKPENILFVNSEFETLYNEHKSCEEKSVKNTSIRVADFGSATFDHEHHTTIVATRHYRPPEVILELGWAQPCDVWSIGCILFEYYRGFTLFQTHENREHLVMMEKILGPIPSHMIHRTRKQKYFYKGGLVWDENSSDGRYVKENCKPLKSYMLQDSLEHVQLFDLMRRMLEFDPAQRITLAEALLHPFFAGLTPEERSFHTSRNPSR
Chain of Non-receptor tyrosine-protein kinase TYK2 (P29597 whole entry): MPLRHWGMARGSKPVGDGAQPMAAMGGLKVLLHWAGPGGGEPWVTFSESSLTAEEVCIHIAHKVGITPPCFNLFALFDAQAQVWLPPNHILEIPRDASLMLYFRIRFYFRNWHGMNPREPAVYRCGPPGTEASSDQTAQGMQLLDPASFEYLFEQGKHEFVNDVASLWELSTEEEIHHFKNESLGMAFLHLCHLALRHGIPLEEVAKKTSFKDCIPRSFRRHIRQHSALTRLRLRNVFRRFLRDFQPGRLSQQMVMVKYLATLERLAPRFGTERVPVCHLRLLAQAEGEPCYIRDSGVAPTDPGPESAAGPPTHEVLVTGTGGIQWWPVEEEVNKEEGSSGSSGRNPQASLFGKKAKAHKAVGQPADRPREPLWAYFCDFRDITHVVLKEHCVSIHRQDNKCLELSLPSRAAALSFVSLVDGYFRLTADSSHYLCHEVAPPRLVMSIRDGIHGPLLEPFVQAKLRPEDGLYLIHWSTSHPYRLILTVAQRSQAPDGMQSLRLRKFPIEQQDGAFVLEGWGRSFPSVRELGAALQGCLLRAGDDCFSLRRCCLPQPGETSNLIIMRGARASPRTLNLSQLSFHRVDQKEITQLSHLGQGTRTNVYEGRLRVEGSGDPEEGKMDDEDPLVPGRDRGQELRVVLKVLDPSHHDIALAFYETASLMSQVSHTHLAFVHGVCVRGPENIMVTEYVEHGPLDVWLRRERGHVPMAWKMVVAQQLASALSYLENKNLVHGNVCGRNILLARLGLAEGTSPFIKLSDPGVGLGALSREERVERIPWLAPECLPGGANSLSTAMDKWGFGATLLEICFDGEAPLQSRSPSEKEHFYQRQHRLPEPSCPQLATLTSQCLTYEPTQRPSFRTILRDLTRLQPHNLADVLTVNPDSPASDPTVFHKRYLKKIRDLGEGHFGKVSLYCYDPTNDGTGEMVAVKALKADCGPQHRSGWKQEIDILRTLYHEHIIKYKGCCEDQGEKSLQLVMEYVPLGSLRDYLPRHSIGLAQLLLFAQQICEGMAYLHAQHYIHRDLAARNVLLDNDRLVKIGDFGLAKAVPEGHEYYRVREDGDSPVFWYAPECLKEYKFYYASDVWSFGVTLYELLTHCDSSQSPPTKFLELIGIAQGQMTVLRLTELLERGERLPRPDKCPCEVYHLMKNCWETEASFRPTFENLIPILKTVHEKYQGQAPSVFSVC
Chain of Tyrosine-protein kinase receptor UFO (Homo sapiens) (P30530 whole entry): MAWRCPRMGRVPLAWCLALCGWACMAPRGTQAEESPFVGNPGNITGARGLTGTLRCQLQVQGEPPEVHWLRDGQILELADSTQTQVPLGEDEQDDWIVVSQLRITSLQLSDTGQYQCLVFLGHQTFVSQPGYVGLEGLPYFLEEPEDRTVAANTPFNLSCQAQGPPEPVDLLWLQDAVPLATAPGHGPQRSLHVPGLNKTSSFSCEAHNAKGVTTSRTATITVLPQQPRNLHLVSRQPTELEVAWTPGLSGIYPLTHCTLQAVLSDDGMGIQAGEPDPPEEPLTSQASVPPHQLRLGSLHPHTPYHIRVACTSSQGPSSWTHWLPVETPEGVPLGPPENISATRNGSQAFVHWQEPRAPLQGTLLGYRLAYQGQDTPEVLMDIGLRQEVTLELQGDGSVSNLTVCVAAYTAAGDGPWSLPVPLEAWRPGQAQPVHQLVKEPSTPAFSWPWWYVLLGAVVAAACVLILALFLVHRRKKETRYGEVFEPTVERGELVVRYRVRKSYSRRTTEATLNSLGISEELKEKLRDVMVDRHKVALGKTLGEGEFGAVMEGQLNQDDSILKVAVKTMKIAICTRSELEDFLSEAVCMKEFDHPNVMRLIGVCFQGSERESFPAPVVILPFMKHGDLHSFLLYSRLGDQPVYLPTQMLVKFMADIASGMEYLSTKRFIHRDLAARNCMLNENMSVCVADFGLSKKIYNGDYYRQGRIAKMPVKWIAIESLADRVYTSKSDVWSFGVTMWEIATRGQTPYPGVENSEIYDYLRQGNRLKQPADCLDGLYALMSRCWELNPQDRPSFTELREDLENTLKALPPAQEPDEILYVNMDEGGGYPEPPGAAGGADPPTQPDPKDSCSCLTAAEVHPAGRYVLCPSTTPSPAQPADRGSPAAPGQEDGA
Chain of Dual specificity mitogen-activated protein kinase kinase 1 (Q02750 whole entry): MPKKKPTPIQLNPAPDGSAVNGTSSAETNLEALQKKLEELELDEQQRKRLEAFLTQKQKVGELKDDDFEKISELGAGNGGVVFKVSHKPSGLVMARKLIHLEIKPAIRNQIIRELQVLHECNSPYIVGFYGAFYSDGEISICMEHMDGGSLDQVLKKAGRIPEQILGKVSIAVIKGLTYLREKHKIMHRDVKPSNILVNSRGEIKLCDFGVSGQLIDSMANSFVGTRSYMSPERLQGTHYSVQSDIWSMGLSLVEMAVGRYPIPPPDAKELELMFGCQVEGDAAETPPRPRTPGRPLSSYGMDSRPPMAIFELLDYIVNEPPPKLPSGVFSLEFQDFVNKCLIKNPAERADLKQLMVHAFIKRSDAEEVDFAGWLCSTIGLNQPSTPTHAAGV
Chain of Calcium/calmodulin-dependent protein kinase kinase 2 (Homo sapiens) (Q96RR4 2-588 limits assumed): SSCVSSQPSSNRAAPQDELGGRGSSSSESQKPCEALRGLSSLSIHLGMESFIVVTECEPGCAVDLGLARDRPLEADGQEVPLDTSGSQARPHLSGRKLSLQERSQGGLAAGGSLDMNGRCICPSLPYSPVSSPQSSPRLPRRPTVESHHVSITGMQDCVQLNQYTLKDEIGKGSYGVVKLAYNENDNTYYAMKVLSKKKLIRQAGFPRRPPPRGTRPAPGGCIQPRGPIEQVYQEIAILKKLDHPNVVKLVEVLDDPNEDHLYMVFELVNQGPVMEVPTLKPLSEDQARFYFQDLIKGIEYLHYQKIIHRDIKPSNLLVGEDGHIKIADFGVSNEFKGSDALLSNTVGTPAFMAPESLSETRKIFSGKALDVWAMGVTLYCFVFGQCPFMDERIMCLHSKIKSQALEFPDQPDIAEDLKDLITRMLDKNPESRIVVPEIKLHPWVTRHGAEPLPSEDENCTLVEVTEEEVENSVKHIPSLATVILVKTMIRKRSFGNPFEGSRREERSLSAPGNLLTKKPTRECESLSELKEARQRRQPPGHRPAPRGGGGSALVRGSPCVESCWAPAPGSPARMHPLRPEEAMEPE
Chain of Glycogen synthase kinase-3 alpha (P49840 2-483 limits assumed): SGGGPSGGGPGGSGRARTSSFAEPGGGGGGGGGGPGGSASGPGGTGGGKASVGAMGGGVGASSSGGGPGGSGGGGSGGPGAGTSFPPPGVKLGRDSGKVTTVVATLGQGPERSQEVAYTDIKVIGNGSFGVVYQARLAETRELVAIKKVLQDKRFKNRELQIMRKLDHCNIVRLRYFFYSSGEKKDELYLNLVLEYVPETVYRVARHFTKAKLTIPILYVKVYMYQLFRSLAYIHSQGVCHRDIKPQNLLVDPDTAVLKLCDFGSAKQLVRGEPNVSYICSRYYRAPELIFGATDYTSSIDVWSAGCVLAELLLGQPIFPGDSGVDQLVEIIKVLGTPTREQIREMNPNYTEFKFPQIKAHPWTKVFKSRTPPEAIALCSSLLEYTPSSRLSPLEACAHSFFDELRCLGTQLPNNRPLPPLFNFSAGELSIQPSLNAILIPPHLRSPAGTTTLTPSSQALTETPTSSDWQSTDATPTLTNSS
Chain of Dual specificity mitogen-activated protein kinase kinase 2 (Homo sapiens) (P36507 whole entry): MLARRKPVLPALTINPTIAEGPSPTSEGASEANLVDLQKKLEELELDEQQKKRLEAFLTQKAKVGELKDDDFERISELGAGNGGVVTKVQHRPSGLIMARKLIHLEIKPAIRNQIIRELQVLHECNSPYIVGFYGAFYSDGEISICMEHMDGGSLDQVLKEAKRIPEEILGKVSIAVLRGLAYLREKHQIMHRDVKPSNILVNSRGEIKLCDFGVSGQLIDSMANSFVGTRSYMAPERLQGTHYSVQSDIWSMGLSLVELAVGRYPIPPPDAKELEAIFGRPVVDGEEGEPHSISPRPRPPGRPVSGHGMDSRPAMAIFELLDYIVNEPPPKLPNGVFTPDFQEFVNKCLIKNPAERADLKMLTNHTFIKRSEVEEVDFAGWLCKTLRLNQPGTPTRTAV
Chain of Tyrosine-protein kinase CSK (Homo sapiens) (P41240 2-450 limits assumed): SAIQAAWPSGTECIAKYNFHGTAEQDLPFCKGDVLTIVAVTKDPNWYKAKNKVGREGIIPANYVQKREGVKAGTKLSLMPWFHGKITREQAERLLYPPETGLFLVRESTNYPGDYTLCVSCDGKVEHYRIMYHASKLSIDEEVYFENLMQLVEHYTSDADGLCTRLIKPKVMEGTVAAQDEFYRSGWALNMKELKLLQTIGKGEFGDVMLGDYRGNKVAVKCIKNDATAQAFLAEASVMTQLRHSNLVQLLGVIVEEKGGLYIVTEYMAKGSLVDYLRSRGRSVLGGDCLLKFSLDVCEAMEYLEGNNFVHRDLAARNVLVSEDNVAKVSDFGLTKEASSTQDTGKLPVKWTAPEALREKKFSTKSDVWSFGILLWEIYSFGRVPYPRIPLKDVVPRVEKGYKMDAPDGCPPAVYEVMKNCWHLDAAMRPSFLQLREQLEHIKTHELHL

`CN(C)C/C=C/C(=O)Nc1ccc(C(=O)N2CCCC(Nc3ncc(Cl)c(-c4c[nH]c5ccccc45)n3)C2)cc1` (configuration not stated) showed a % of control in assay [1] of 94%.

On to `CCN(CC)CCCCNc1ncc2cc(-c3cc(OC)cc(OC)c3)c(NC(=O)NC(C)(C)C)nc2n1`, for which, in assay [2], the % of control came to 100%.

`CCC(=O)N1CCN(c2ccc(-n3c(=O)ccc4cnc5ccc(-c6cnc7ccccc7c6)cc5c43)cc2C(F)(F)F)CC1`: the % of control in assay [3] was 100%.

Turning to `CN(C)CCOc1ccc(-c2nc(-c3ccncc3)c(-c3ccc4c(c3)CC/C4=N\O)[nH]2)cc1`, the % of control in [4] was determined as 97%; in [5], 88%.

For the compound `Cc1cc(F)c(C(=O)Nc2cccc(-c3nncn3C(C)C)n2)cc1-n1cnc(C2CC2)c1`, in [6], the % of control was 97%.

Regarding `CNC(=O)Nc1ccc(-c2nc(N3CC4CCC(C3)O4)c3cnn(C4CCC5(CC4)OCCO5)c3n2)cc1`, the % of inhibition in assay [7] was -1%.

For `CC[C@@H]1[C@H](F)C(=O)N[C@@H]1COc1nccc2cc(C(N)=O)c(OC)cc12` [ZIMLOVISERTIB], the % of inhibition was -7.4% in [8]; 8.2% in assay [9] (at 0.01 µM); 15.5% in [9] (at 0.04 µM); 0.7% in [9] (at 0.2 µM); 5.8% in assay [9] (at 1 µM); 12.1% in assay [9] (at 5 µM).

With `COc1cc(N(C)c2ccnc3ccc(C(F)(F)F)cc23)cc(OC)c1OC`, the % binding in assay [10] amounted to 100%.

For the compound `CN1Cc2nccc(-c3cn(C)nc3-c3ccc(F)cc3)c2C1=O`, the % of inhibition in assay [11] is -3%.

Turning to `C=CC(=O)Nc1ccc(C(=O)Nc2[nH]nc3c2CN(C(=O)N[C@H](CN(C)C)c2ccccc2)C3(C)C)cc1`, the results for the % of engagement in assay [12] and in [13] were 4.9% and -2.4%, respectively.
